Results: article PMC5367682, “Fragment library screening identifies hits that bind to the non-catalytic surface of Pseudomonas aeruginosa DsbA1” (PLoS ONE, 2017)

What was measured:
PaDsbA1 = target: T1, PaDsbA1 (Pseudomonas aeruginosa, UniProt P0C2B2); test: […]-HSQC NMR titration, CSP fitted to one-site model; format: binding
T1 construct: gene dsbA; N-terminal His6 tag cut with TEV; E. coli BL21(DE3) Gold; 15N-labelled for NMR, oxidized; NMR structure residues 3-192

EcDsbA = target: T2, EcDsbA (Escherichia coli, UniProt P0AEG4); test: […]-HSQC NMR after STD NMR; format: binding
T2 construct: gene dsbA; 15N-labelled for HSQC
T2 sequence (P0AEG4 20-208): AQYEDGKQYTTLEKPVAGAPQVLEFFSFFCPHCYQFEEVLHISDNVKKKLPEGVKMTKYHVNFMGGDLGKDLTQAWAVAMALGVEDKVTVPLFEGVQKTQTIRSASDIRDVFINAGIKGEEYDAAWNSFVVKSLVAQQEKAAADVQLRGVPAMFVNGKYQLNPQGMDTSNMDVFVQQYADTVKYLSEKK

T1 sequence (P0C2B2 22-211): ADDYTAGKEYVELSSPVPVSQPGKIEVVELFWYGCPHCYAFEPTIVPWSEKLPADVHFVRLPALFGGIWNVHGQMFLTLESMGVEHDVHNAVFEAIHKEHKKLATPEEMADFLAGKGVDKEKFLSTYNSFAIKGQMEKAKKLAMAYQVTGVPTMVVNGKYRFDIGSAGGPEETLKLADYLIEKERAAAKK

| Structure (SMILES) | Kd (PaDsbA1) | Kd (EcDsbA) |
| --- | --- | --- |
| Cc1ccccc1CSc1nncn1N [compound 1, Fragment 1] | 900 µM | – |
| Cc1cc(C(=O)Nc2cccc(O)c2)c(C)o1 [compound 2, Fragment 2] | 1600 ± 200 µM | – |
| Oc1nc2ccccc2s1 [compound 3, Fragment 3] | 2100 ± 300 µM | – |
| Nc1ccc(-c2nc3ccccc3[nH]2)cc1 [compound 4, Fragment 4] | 2500 ± 400 µM | – |
| NNC(=O)c1cc(C2CC2)n[nH]1 [compound 5, Fragment 5] | 2700 ± 700 µM | – |
| COc1ccc(-c2nc(N)sc2C)cc1 [compound 6, Fragment 6] | 3900 ± 200 µM | > 5000 µM |
| CNCc1ccc(-c2cccc(Cl)c2)o1 [compound 7, Fragment 7] | 4300 ± 1000 µM | – |
| Nc1cccc(C(=O)Nc2ccccc2Cl)c1 [compound 8, Fragment 8] | 4400 ± 5000 µM | – |
